Molecular target: T1, human orexin type 2 receptor (hOX2R) (Homo sapiens, UniProt O43614)
T1 construct: expressed in transfected cells
T1 sequence (O43614 1-444): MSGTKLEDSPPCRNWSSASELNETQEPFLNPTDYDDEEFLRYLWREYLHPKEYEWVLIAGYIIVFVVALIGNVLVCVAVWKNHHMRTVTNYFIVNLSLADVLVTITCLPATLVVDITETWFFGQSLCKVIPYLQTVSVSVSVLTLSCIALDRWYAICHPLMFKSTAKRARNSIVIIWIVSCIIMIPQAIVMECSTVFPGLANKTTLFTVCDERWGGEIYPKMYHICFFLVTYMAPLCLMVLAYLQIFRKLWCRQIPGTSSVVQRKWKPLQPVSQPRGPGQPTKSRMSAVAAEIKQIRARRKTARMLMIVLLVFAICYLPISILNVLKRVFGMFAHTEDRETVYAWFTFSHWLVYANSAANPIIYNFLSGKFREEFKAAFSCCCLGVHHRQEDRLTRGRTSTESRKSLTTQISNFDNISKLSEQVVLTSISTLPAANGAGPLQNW
Assay: Measurement of orexin type 2 receptor agonist activity (Fluo-4 calcium fluorescence, CHO cells forcibly expressing human OX2 receptor)
Type: cell-based
Conditions: test compound 3 μM, DMSO = 0%, orexin A (human) 10 nM = 100%
Text: Experimental Example 1: Obtainment of Cell Stably Expressing Human Orexin Type 2 Receptor (hOX2R)
To obtain a cell clone stably expressing human orexin type 2 receptor, human orexin type 2 receptor cDNA was inserted into pcDNA3.1(+) plasmid vector (Invitrogen), and a plasmid DNA for expression of human orexin type 2 receptor (pcDNA3.1(+)/hOX2R) was cloned. The plasmid DNA was introduced into CHO-dhfr cell by an electroporation method, and human orexin type 2 receptor expressing clone cells were obtained by limiting dilution method by using G418 drug resistance as a selection marker.
Experimental Example 2: Measurement of Orexin Type 2 Receptor Agonist Activity
CHO cells forcibly expressing human OX2 receptor were seeded in each well of 384 well black transparent bottom plate (BD Falcon) at 7,500 cells/well, and cultured for one day in a 5% CO2 incubator at 37° C. After removal of the medium in the cell plate, assay buffer A containing a calcium indicator (HBSS (Life Technologies), 20 mM HEPES (Life Technologies), 0.1% BSA (Wako Pure Chemical Industries, Ltd.), 2.5 μg/mL Fluo-4 AM (DOJINDO Chemical), 0.08% Pluronic F127 (DOJINDO Chemical), 1.25 mM probenecid (DOJINDO Chemical)) was added at 30 μL/well. The plate was stood for 30 min in a 5% CO2 incubator at 37° C., and further stood at room temperature for 30 min. A test compound prepared by diluting with assay buffer B (HBSS, 20 mM HEPES, 0.1% BSA) was added at 10 μL/well, and the fluorescence value was measured by FDSSpCELL (Hamamatsu Photonics K.K.) every one sec for 1 min, and thereafter every two sec for 1 min 40 sec. The activity (%) of the test compound was calculated assuming that variation in the fluorescence value when DMSO was added instead of the test compound was 0% […], and variation in the fluorescence value when orexin A (human) (PEPTIDE INSTITUTE, INC.) was added at the final concentration of 10 nM was 100% […]. The activity of each compound at the concentration of 3 μM was shown below.

Question: How did the “OX2R agonist activity (3 μM, %)” value turn out when `CO[C@@H]1CN(C(=O)c2c(C)cccc2C2CC2)C[C@H]1Oc1cccc(CS(=O)(=O)N(C)C2CCOCC2)c1` (relative stereo) [Example 160, trans-1-(3-((1-(2-cyclopropyl-6-methylbenzoyl)-4-methoxypyrrolidin-3-yl)oxy)phenyl)-N-methyl-N-(tetrahydro-2H-pyran-4-yl)methanesulfonamide] was run?
Answer: Its value is 111%.

Question: For `CO[C@@H]1CN(C(=O)c2cc(C)ccc2C)C[C@H]1Oc1cccc(CS(=O)(=O)N2CCC[C@H]2c2ccccn2)c1` [Example 57, (2,5-dimethylphenyl)((3R,4R)-3-methoxy-4-(3-((((2S)-2-(pyridin-2-yl)pyrrolidin-1-yl)sulfonyl)methyl)phenoxy)pyrrolidin-1-yl)methanone], which “OX2R agonist activity (3 μM, %)” value is on record?
Answer: Its value is 55%.

Question: For `CO[C@@H]1CN(C(=O)c2cc(C)ccc2C)C[C@H]1Oc1cccc(CS(=O)(=O)N2CCCC2c2cnccn2)c1` (relative stereo) [Example 39, trans-(2,5-dimethylphenyl)(3-methoxy-4-(3-(((2-(pyrazin-2-yl)pyrrolidin-1-yl)sulfonyl)methyl)phenoxy)pyrrolidin-1-yl)methanone], which “OX2R agonist activity (3 μM, %)” value is on record?
Answer: Its value is 76%.

Question: `CO[C@@H]1CN(C(=O)c2cc(C)ccc2C)C[C@H]1Oc1cccc(CS(=O)(=O)N2CCCC2c2ccncc2)c1` (relative stereo) [Example 18, trans-(2,5-dimethylphenyl)(3-methoxy-4-(3-(((2-(pyridin-4-yl)pyrrolidin-1-yl)sulfonyl)methyl)phenoxy)pyrrolidin-1-yl)methanone] was tested. Which “OX2R agonist activity (3 μM, %)” value did it give?
Answer: Its value is 75%.

Question: `CO[C@@H]1CN(C(=O)C(F)(F)c2ccccc2)C[C@H]1Oc1cccc(CS(=O)(=O)N(C)C2CCOCC2)c1` (relative stereo) [Example 145, trans-1-(3-((1-(difluoro(phenyl)acetyl)-4-methoxypyrrolidin-3-yl)oxy)phenyl)-N-methyl-N-(tetrahydro-2H-pyran-4-yl)methanesulfonamide] was tested. Which “OX2R agonist activity (3 μM, %)” value did it give?
Answer: The value was 45%.

Question: For `Cc1ccc(C)c(C(=O)N2CC[C@H](Oc3cccc(CS(=O)(=O)N4CCCC4c4ccccn4)c3)C2)c1` (stereo partly drawn) [Example 25, (2,5-dimethylphenyl)((3S)-3-(3-(((2-(pyridin-2-yl)pyrrolidin-1-yl)sulfonyl)methyl)phenoxy)pyrrolidin-1-yl)methanone], which “OX2R agonist activity (3 μM, %)” value is on record?
Answer: The value was 29%.

Question: Which “OX2R agonist activity (3 μM, %)” value does the source give for `CO[C@@H]1CN(C(=O)c2cc(C)ccc2C)C[C@H]1Oc1cccc(C(C)S(=O)(=O)N2CCC[C@H]2c2ccccn2)c1` (stereo partly drawn) [Example 137, (2,5-dimethylphenyl)((3R,4R)-3-methoxy-4-(3-(1-(((2S)-2-(pyridin-2-yl)pyrrolidin-1-yl)sulfonyl)ethyl)phenoxy)pyrrolidin-1-yl)methanone] here?
Answer: Its value is 88%.

Question: For `CO[C@@H]1CN(C(=O)c2cc(C)ccc2C)C[C@H]1Oc1cccc(NS(=O)(=O)N(C)C2COC2)c1` (relative stereo) [Example 45, trans-N′-(3-((1-(2,5-dimethylbenzoyl)-4-methoxypyrrolidin-3-yl)oxy)phenyl)-N-methyl-N-oxetan-3-ylsulfuric diamide], which “OX2R agonist activity (3 μM, %)” value is on record?
Answer: Its value is 82%.

Question: Which “OX2R agonist activity (3 μM, %)” value does the source give for `CO[C@@H]1CN(C(=O)c2cc(C)ccc2C)C[C@H]1Oc1cccc(NS(=O)(=O)N2CCCC2C)c1` (relative stereo) [Example 23, trans-N-(3-((1-(2,5-dimethylbenzoyl)-4-methoxypyrrolidin-3-yl)oxy)phenyl)-2-methylpyrrolidine-1-sulfonamide] here?
Answer: Its value is 60%.

Question: How did the “OX2R agonist activity (3 μM, %)” value turn out when `CO[C@@H]1CN(C(=O)c2cc(C)ccc2C)C[C@H]1Oc1cccc(CS(=O)(=O)N2CCC23COC3)c1` (relative stereo) [Example 34, trans-(2,5-dimethylphenyl)(3-methoxy-4-(3-((6-oxa-1-azaspiro[3.3]hept-1-ylsulfonyl)methyl)phenoxy)pyrrolidin-1-yl)methanone] was run?
Answer: Its value is 87%.

Question: How did the “OX2R agonist activity (3 μM, %)” value turn out when `CO[C@@H]1CN(C(=O)c2cc(C)ccc2C)C[C@H]1Oc1cccc(CS(=O)(=O)N2CCCC2c2nccs2)c1` (relative stereo) [Example 40, trans-(2,5-dimethylphenyl)(3-methoxy-4-(3-(((2-(1,3-thiazol-2-yl)pyrrolidin-1-yl)sulfonyl)methyl)phenoxy)pyrrolidin-1-yl)methanone] was run?
Answer: Its value is 79%.

Question: For `CO[C@@H]1CN(C(=O)c2cc(C)ccc2C)C[C@H]1Oc1cccc(NS(=O)(=O)N2CCCC2Cc2cccnc2)c1` (relative stereo) [Example 67, trans-N-(3-((1-(2,5-dimethylbenzoyl)-4-methoxypyrrolidin-3-yl)oxy)phenyl)-2-(pyridin-3-ylmethyl)pyrrolidine-1-sulfonamide], which “OX2R agonist activity (3 μM, %)” value is on record?
Answer: Its value is 82%.

Question: How did the “OX2R agonist activity (3 μM, %)” value turn out when `COCC1CCCN1S(=O)(=O)Nc1cccc(O[C@@H]2CN(C(=O)c3cc(C)ccc3C)C[C@H]2OC)c1` (relative stereo) [Example 50, trans-N-(3-((1-(2,5-dimethylbenzoyl)-4-methoxypyrrolidin-3-yl)oxy)phenyl)-2-(methoxymethyl)pyrrolidine-1-sulfonamide] was run?
Answer: The value was 87%.

Question: `CO[C@@H]1CN(C(=O)c2cc(C)ccc2C)C[C@H]1Oc1cccc(NS(=O)(=O)N2CCCC2)c1` (relative stereo) [Example 22, trans-N-(3-((1-(2,5-dimethylbenzoyl)-4-methoxypyrrolidin-3-yl)oxy)phenyl)pyrrolidine-1-sulfonamide] was tested. Which “OX2R agonist activity (3 μM, %)” value did it give?
Answer: Its value is 65%.

Question: Which “OX2R agonist activity (3 μM, %)” value does the source give for `CO[C@@H]1CN(C(=O)Oc2ccccc2C)C[C@H]1Oc1cccc(NS(=O)(=O)N2CC3CC3C2)c1` (stereo partly drawn) [Example 138, 2-methylphenyl(3R,4R)-3-(3-((3-azabicyclo[3.1.0]hex-3-ylsulfonyl)amino)phenoxy)-4-methoxypyrrolidine-1-carboxylate] here?
Answer: Its value is 38%.

Question: Which “OX2R agonist activity (3 μM, %)” value does the source give for `CCc1cccc(C)c1C(=O)N1C[C@@H](OC)[C@H](Oc2cccc(CS(=O)(=O)N(C)C3CCOC(C)(C)C3)c2)C1` (relative stereo) [Example 140, trans-N-(2,2-dimethyltetrahydro-2H-pyran-4-yl)-1-(3-((1-(2-ethyl-6-methylbenzoyl)-4-methoxypyrrolidin-3-yl)oxy)phenyl)-N-methylmethanesulfonamide] here?
Answer: Its value is 109%.

Question: Which “OX2R agonist activity (3 μM, %)” value does the source give for `CO[C@@H]1CN(C(=O)c2cc(C)ccc2C)C[C@H]1Oc1cccc(CS(=O)(=O)N2CCCC2Cc2cccnc2)c1` (relative stereo) [Example 36, trans-(2,5-dimethylphenyl)(3-methoxy-4-(3-(((2-(pyridin-3-ylmethyl)pyrrolidin-1-yl)sulfonyl)methyl)phenoxy)pyrrolidin-1-yl)methanone] here?
Answer: Its value is 89%.

Question: For `CO[C@@H]1CN(C(=O)c2cc(C)ccc2C)C[C@H]1Oc1cccc(NS(=O)(=O)N2CCC2)c1` (relative stereo) [Example 48, trans-N-(3-((1-(2,5-dimethylbenzoyl)-4-methoxypyrrolidin-3-yl)oxy)phenyl)azetidine-1-sulfonamide], which “OX2R agonist activity (3 μM, %)” value is on record?
Answer: Its value is 62%.

Question: How did the “OX2R agonist activity (3 μM, %)” value turn out when `CO[C@@H]1CN(C(=O)c2cc(C)ccc2C)C[C@H]1Oc1cc(F)cc(CS(=O)(=O)N2CCCC2c2ccccn2)c1` (relative stereo) [Example 91, trans-(2,5-dimethylphenyl)(3-(3-fluoro-5-(((2-(pyridin-2-yl)pyrrolidin-1-yl)sulfonyl)methyl)phenoxy)-4-methoxypyrrolidin-1-yl)methanone] was run?
Answer: Its value is 70%.

Question: With `CO[C@@H]1CN(C(=O)c2cc(C)ccc2C)C[C@H]1Oc1cccc(CS(=O)(=O)N(C)C2CCOC(C)(C)C2)c1` (relative stereo) [Example 156, trans-1-(3-((1-(2,5-dimethylbenzoyl)-4-methoxypyrrolidin-3-yl)oxy)phenyl)-N-(2,2-dimethyltetrahydro-2H-pyran-4-yl)-N-methylmethanesulfonamide] as the compound, how does the “OX2R agonist activity (3 μM, %)” value read?
Answer: Its value is 92%.

Question: For `CO[C@@H]1CN(C(=O)c2cc(C)ccc2C)C[C@H]1Oc1cccc(NS(=O)(=O)N(C)CC2CCOC2)c1` (relative stereo) [Example 62, trans-N′-(3-((1-(2,5-dimethylbenzoyl)-4-methoxypyrrolidin-3-yl)oxy)phenyl)-N-methyl-N-(tetrahydrofuran-3-ylmethyl)sulfuric diamide], which “OX2R agonist activity (3 μM, %)” value is on record?
Answer: Its value is 74%.

Source: US11059780B2, “Substituted pyrrolidine compound and use thereof” (Takeda Pharmaceutical Company Limited, priority 2017, dated 2021)
